Measured values: US5776944A, “7-(4-aminomethyl-3-methyloxyiminopyrroplidin-1-yl)-1-cyclopropyl-6-flu oro-4-oxo-1,4-dihydro-1,8-naphthyridine-3-carboxylic acid and the process for the preparation thereof” (LG Chemical Ltd., priority 1994, dated 1998)
Like-named read-outs stand apart in the source and are kept apart here.

How the values were obtained:
[1] = system: Staphylococcus aureus 241; test: In vitro antibacterial activity (MIC, agar medium dilution), Biological Example 4; assay type: cell-based; details: Staphylococcus aureus, 241, 18 h, Staphylococcus aureus 241, Table 32, ratio of weight; read-out: Minimum Inhibitory Concentration: MIC
[2] = system: Escherichia coli TEM3 3455E; test: as above; assay type: cell-based; details: TEM33455E, 18 h, read-out: Minimum Inhibitory Concentration: MIC, Escherichia coli TEM3 3455E, Table 32, ratio of weight
[3] = Antibacterial activity of methanesulfonate and its hydrate; assay type: cell-based
Proteus vulgaris 6059 = test: In vitro antibacterial activity (MIC, agar medium dilution), Biological Example 4; assay type: cell-based; details: 18 h; Proteus vulgaris 6059, Table 32, ratio of weight; read-out: Minimum Inhibitory Concentration: MIC
Bacillus subtilis 6633 = test: as above; assay type: cell-based; details: 18 h; Bacillus subtilis 6633, Table 32, ratio of weight; read-out: Minimum Inhibitory Concentration: MIC
[4] = system: Escherichia coli TEM9 2639E; test: as above; assay type: cell-based; details: TEM92639E, 18 h, read-out: Minimum Inhibitory Concentration: MIC
[5] = system: Enterobacter cloacae 1194E; test: microbe, parasite or virus in culture; assay type: cell-based; details: 18 h, read-out: Minimum Inhibitory Concentration: MIC
[6] = system: Pseudomonas aeruginosa 1912E; test: In vitro antibacterial activity (MIC, agar medium dilution), Biological Example 4; assay type: cell-based; details: 18 h, Table 32, ratio of weight, read-out: Minimum Inhibitory Concentration: MIC
[7] = system: Citrobacter diversus 2046E; test: as above; assay type: cell-based; details: Citrobacter koseri, 18 h, Table 32, ratio of weight, read-out: Minimum Inhibitory Concentration: MIC
[8] = system: Staphylococcus aureus giorgio; test: In vitro antibacterial activity (MIC, agar medium dilution), Biological Example 4; assay type: cell-based; details: 18 h, Table 32, ratio of weight, read-out: Minimum Inhibitory Concentration: MIC
[9] = assay type: physicochemical
Staphylococcus aureus 77 = test: In vitro antibacterial activity (MIC, agar medium dilution), Biological Example 4; assay type: cell-based; details: 18 h; Staphylococcus aureus 77, Table 32, ratio of weight; read-out: Minimum Inhibitory Concentration: MIC
[10] = system: Klebsiella aerogenes 1082E; test: as above; assay type: cell-based; details: 18 h, Table 32, ratio of weight, read-out: Minimum Inhibitory Concentration: MIC
[11] = system: Klebsiella aerogenes 1976E; test: as above; assay type: cell-based; details: 18 h, Table 32, ratio of weight, read-out: Minimum Inhibitory Concentration: MIC
Escherichia coli 851E = test: as above; assay type: cell-based; details: 18 h, Table 32, ratio of weight, read-out: Minimum Inhibitory Concentration: MIC
[12] = system: Staphylococcus epidermidis 178; test: as above; assay type: cell-based; details: 18 h; Staphylococcus epidermidis 178, Table 32, ratio of weight; read-out: Minimum Inhibitory Concentration: MIC
[13] = system: Staphylococcus aureus 6538p; test: as above; assay type: cell-based; details: 18 h, Table 32, ratio of weight without considering molecular weight, read-out: Minimum Inhibitory Concentration: MIC
Enterobacter cloacae P99 = test: microbe, parasite or virus in culture; assay type: cell-based; details: P99, 18 h, read-out: Minimum Inhibitory Concentration: MIC
Micrococcus luteus 9341 = test: In vitro antibacterial activity (MIC, agar medium dilution), Biological Example 4; assay type: cell-based; details: 18 h; Micrococcus luteus 9341, Table 32, ratio of weight; read-out: Minimum Inhibitory Concentration: MIC
[14] = system: Staphylococcus epidermidis 887E; test: as above; assay type: cell-based; details: 18 h, read-out: Minimum Inhibitory Concentration: MIC, Staphylococcus epidermidis 887E, Table 32, ratio of weight
test strains = test: In vitro antibacterial activity, overall finding, Biological Example 4; assay type: cell-based; details: Tables 31 and 32
Experimental: (§1) In order to determine the antibacterial activitiers of the E- and Z-isomner of the compound 180 which were separated in Example 203, and of 7- (4-aminomethyl-3-methyloxylminopyrrolidin-1-yl)-1-cyclopropyl-6-fluoro-4-oxo-1,4-dihydro-1,8-naphthyridine-3-carboxylic acid methanesulfonate prepared in Example 204, in vitro antibacterial activities of them were measured using agar medium dilution method. The results were as described in the following Tables 31 and 32.

[15] = system: Streptococcus faecalis 29212; test: In vitro antibacterial activity (MIC, agar medium dilution), Biological Example 4; assay type: cell-based; details: Enterococcus faecalis, 29212, 18 h, Streptococcus faecalis 29212, Table 32, ratio of weight; read-out: Minimum Inhibitory Concentration: MIC
physchem = details: phosphate buffered solution
Escherichia coli 3190Y = test: In vitro antibacterial activity (MIC, agar medium dilution), Biological Example 4; assay type: cell-based; details: 18 h, Table 32, ratio of weight, read-out: Minimum Inhibitory Concentration: MIC
[16] = system: Escherichia coli TEM5 3739E; test: as above; assay type: cell-based; details: TEM53739E, 18 h, read-out: Minimum Inhibitory Concentration: MIC
[17] = system: Salmonella thypimurium 14028; test: as above; assay type: cell-based; details: 18 h; Salmonella thypimurium 14028, Table 32, ratio of weight; read-out: Minimum Inhibitory Concentration: MIC
Seratis marsecence 1826E = test: as above; assay type: cell-based; details: 18 h, Table 32, ratio of weight, read-out: Minimum Inhibitory Concentration: MIC
Experimental: as §1

[18] = system: Pseudomonas aeruginosa 10145; test: as above; assay type: cell-based; details: Pseudomonas aeruginosa, 10145, 18 h, Pseudomonas aeruginosa 10145, Table 32, ratio of weight; read-out: Minimum Inhibitory Concentration: MIC
[19] = system: Acinetobacter calcoaceticus 15473; test: as above; assay type: cell-based; details: 18 h; Acinetobacter calcoaceticus 15473, Table 32, ratio of weight; read-out: Minimum Inhibitory Concentration: MIC
Escherichia coli 10536 = test: as above; assay type: cell-based; details: Escherichia coli, 10536, 18 h, read-out: Minimum Inhibitory Concentration: MIC, Escherichia coli 10536, Table 32, ratio of weight

Structure (SMILES): CON=C1CN(c2nc3c(cc2F)c(=O)c(C(=O)O)cn3C2CC2)CC1CN.CS(=O)(=O)O (centres unmarked) [Methanesulfonate, 7-(4-aminomethyl-3-methyloxyiminopyrrolidin-1-yl)-1-cyclopropyl-6-fluoro-4-oxo-1,4-dihydro-1,8-naphthyridine-3-carboxylic acid methanesulfonate]
- MIC [1]: 4 µg/mL
- MIC [2]: 0.25 µg/mL
- antibacterial activity compared with the free form [3]: the same potent antibacterial activity as the free form
- MIC (Proteus vulgaris 6059): 0.25 µg/mL
- MIC (Bacillus subtilis 6633): 0.016 µg/mL
- MIC [4]: 0.031 µg/mL
- MIC [5]: 0.031 µg/mL
- MIC [6]: 0.25 µg/mL
- MIC [7]: 0.031 µg/mL
- water solubility compared with other salts and free form: superior to that of the tartarate, the sulfurate, and the p-toluenesulfonate as well as the free form
- MIC [8]: 0.016 µg/mL
- solubility [9]: excellent solubility
- MIC (Staphylococcus aureus 77): 0.031 µg/mL
- MIC [10]: 0.031 µg/mL
- MIC [11]: 0.13 µg/mL
- MIC (Escherichia coli 851E): 0.016 µg/mL
- MIC [12]: 4 µg/mL
- MIC [13]: 0.016 µg/mL
- MIC (Enterobacter cloacae P99): 0.016 µg/mL
- MIC (Micrococcus luteus 9341): 0.13 µg/mL
- MIC [14]: 0.016 µg/mL
- antibacterial activity (test strains): excellent antibacterial activity
- MIC [15]: 0.13 µg/mL
- solubility (physchem; pH 2, Water Solubility, phosphate buffered solution (pH 2)): > 20 mg/mL
- solubility (physchem; pH 7, Water Solubility, phosphate buffered solution (pH 7)): > 30 mg/mL
- MIC (Escherichia coli 3190Y): 8 ng/mL
- MIC [16]: 0.13 µg/mL
- MIC [17]: 0.031 µg/mL
- MIC (Seratis marsecence 1826E): 0.13 µg/mL
- MIC [18]: 0.5 µg/mL
- MIC [19]: 0.031 µg/mL
- MIC (Escherichia coli 10536): 8 ng/mL
